Values quoted from earlier work in US20230095832A1, “ADHESION BARRIER COMPOSITION, METHODS OF FABRICATION AND USE THEREOF” (SPOROGENICS PTE. LTD., priority 2020, published 2023).

Tested on: intra-abdominal adhesions

SMILES: O=C(O)c1cc(O)c(O)c(O)c1 [gallic acid]
- IL-6, TNF-α, TGF-b1 serum levels and NF-kB phosphorylation (further studies): significantly reduced
- intra-abdominal adhesions (rats, compared to a control): decrease intra-abdominal adhesions
